Test results taken from patent publication EP0075823A2, “Use of basically substituted phenylacetonitriles in the prophylactic treatment of illnesses” (KNOLL AG, priority 1981, dated 1983).

System: diabetischer Ratten
Test: Alloxan-induced diabetes mellitus in rats: prevention of lens and arterial wall calcinosis
Format: in vivo, Wistar-Ratten
Settings: for durch Calcinose von Gefäßwänden verursachte Arterienveränderungen verhindern: attempts with other calcium antagonists, no dose or model details printed
Method: Gemäß der Erfindung wird es zum ersten Mal möglich, die Krankheiten vorbeugend bei Warmblütern mit Erfolg medikamentös zu behandeln, wie folgende Versuche zeigen: • Wistar-Ratten im Alter von 2 Monaten erhielten zur Erzeugung eines Diabetes mellitus intravenös 80 mg/kg Alloxan. Nach Zerstörung der Insulin-produzierenden ß-Zellen im Pancreas stieg der Blutzuckerwert bei den Tieren von 100 mg% auf etwa 420 mg%. Dieser Wert blieb während einer Beobachtungszeit von 6 1/2 Monaten praktisch konstant. Während der Beobachtungszeit erhielt ein Teil der Tiere täglich 25 mg/kg Verapamilhydrochlorid mit einer Schlucksonde. Bei den nicht mit Verapamil behandelten Tieren kam es in dieser Zeit bei 63 % der Tiere zu einem völligen Verlust der Transparenz der Augenlinse, während sich bei den behandelten Tieren nur in 4 % der Fälle ein Katarakt bildete.
Ohne Verapamil stieg der Calcium-Gehalt der Linse diabetischer Ratten vom Normalwert nicht-diabetischer Kontrolltiere (= 1,08 (i 0,02)) auf 10,89 (± 0,85) mmol/kg Trockengewicht an. Dagegen verblieb mit Verapamil der mittlere Calcium-Gehalt der Linsen diabetischer Tiere in dem niedrigeren Bereich von 3,46 (± 0,61) mmol/kg Trockengewicht.
-Mit der Verhinderung des Calcium-Anstiegs in den Arterien--Wänden wurden auch die elektronen-optisch - hauptsächlich in der Media - nachweisbaren degenerativen Prozesse verhütet.

In the case of COc1ccc(CCN(C)CCCC(C#N)(c2cc(OC)c(OC)c(OC)c2)C(C)C)cc1OC (stereo not drawn) [Gallopamil, α-ISOpropyl-α-[(N-methyl-N-homoveratryl)--α-aminopropyl]-3,4,5-trimethoxyphenylacetonitril], the “Verhütung der diabetischen Linsen-Calcinose und des Calcium-Anstiegs in den Arterien-Wänden” value (general statement that corresponding results can be obtained, no data or dose printed) was “Entsprechende Ergebnisse”.

For COC(=O)C1=C(C)NC(C)=C(C(=O)OC)C1c1ccccc1[N+](=O)[O-] [Nifedipin], the “durch Calcinose von Gefäßwänden verursachte Arterienveränderungen verhindern” value was “erfolglos”.

For CCCOCCOC(=O)C1=C(C)NC(C)=C(C(=O)OCCOCCC)C1c1cccc([N+](=O)[O-])c1 [Niludipin], the “durch Calcinose von Gefäßwänden verursachte Arterienveränderungen verhindern” value was “erfolglos”.

With COc1ccc(CCN(C)CCCC(C#N)(c2ccc(OC)c(OC)c2)C(C)C)cc1OC (stereo not drawn) [Verapamil, α-Isopropyl-α-[(N-methyl-N-homoveratryl)--α-aminopropyl]-3,4-dimethoxyphenylacetonitril] the “Katarakt (völliger Verlust der Transparenz der Augenlinse), Anteil der Tiere” value (alloxan-diabetic Wistar rats (80 mg/kg Alloxan i.v.), 25 mg/kg daily by gavage, observation 6 1/2 months, untreated diabetic animals 63 %) was 4%, the “mittlerer Calcium-Gehalt der Linsen diabetischer Tiere” value (alloxan-diabetic rats, 25 mg/kg daily p.o., 6 1/2 months, untreated diabetic 10,89 (± 0,85), non-diabetic controls 1,08) was 3,46 (± 0,61) mmol/kg Trockengewicht and the “elektronen-optisch - hauptsächlich in der Media - nachweisbare degenerative Prozesse” value (arterial walls of the same treated diabetic rats, electron microscopy) was “verhütet”. For the same compound, the “abnormer Anstieg der Calcium-Werte in der Wand der Aorta und der Arteria mesenterica superior (Darmarterie)” value (same alloxan-diabetic rats, 25 mg/kg daily p.o., 6 1/2 months) was “verhindert”.
